According to patent US12012404B2, “Pyrimidoheterocyclic compounds and application thereof” (D3 BIO (WUXI) CO., LTD., priority 2020, dated 2024):

Tests used:
Type in all cases: in vitro ADME
[1] = In vitro stability in liver microsomes, human; conditions: 0.5 mg/mL
Description: Purpose of the assay: Metabolic stabilities of the assay compounds in liver microsomes of CD-1 mice, SD rats, beagle dogs, cynomolgus monkeys, and human were assayed, respectively.
Procedure of the assay: Two 96-well incubation plates were prepared and named T60 incubation plate and NCF60 incubation plate, respectively. 445 μL of microsomal working solutions (liver microsomal protein concentration of 0.56 mg/mL) were added to the T60 incubation plate and the NCF60 incubation plate, respectively, and then the above incubation plates were pre-incubated in a 37° C. water bath for about 10 minutes.
After the pre-incubation, 5 μL of working solutions of the assay sample or the control compound were added to the T60 incubation plate and the NCF60 incubation plate, respectively, and the mixture was mixed well. 50 μL of potassium phosphate buffer was added to each well of the NCF60 incubation plate to initiate the reaction. 180 μL of stop solution (200 ng/mL tolbutamide and 200 ng/mL labetalol in acetonitrile) and 6 uL of NADPH regeneration system working solution were added to the T0 stop plate, and 54 μL of sample was transferred from T60 incubation plate to T0 stop plate (generation of TO sample). The reaction was initiated by adding 44 μL of NADPH regeneration system working solution to each well of the T60 incubation plate. Only 54 μL of microsome working solution, 6 uL of NADPH regeneration system working solution and 180 μL of stop solution were added to the Blank plate. Therefore, in samples of the assay compound or the control compound, the final reaction concentration of compound, testosterone, diclofenac and propafenone was 1 μM, the concentration of liver microsomes was 0.5 mg/mL, and the final reaction concentrations of DMSO and acetonitrile in the reaction system were 0.01% (v/v) and 0.99% (v/v), respectively.
After an appropriate time (e.g., 5, 15, 30, 45 and 60 minutes) of incubation, 180 μL of stop solutions (200 ng/mL tolbutamide and 200 ng/mL labetalol in acetonitrile) were added to the sample wells of each stop plate, respectively. 60 μL of sample was removed from the T60 incubation plate to stop the reaction. All sample plates were shaken well and then centrifuged at 3220×g for 20 minutes. Then 80 μL of supernatant was taken out from each well, and diluted in 240 μL of pure water for liquid chromatography-tandem mass spectrometry analysis. All samples were injected and analyzed by liquid chromatography-tandem mass spectrometry.

[2] = Metabolic stability in hepatocytes, cynomolgus monkeys
Description: Purpose of the assay: Metabolic stabilities of assay compounds in hepatocytes of CD-1 mice, SD rats, beagle dogs, cynomolgus monkeys, and human were assayed, respectively.
Procedure of the assay: Several 96-well sample precipitation plates were prepared and named T0, T15, T30, T60, T90, T120, TO-MC, T120-MC and blank substrates, respectively. The recovery medium and incubation medium were taken out in advance and placed in a 37° C. water bath for pre-heating. Cryopreserved hepatocytes were removed from the liquid nitrogen tank and immediately immersed in a 37° C. water bath (approximately 90 seconds). After the cryopreserved hepatocytes had thawed and loosened, they were poured into a centrifuge tube containing 40 mL of recovery medium, and the tube was gently inverted to allow the cells to be resuspended in the recovery medium. The cells were centrifuged at 100×g at room temperature for 5 min, and the supernatant was removed. The hepatocytes were resuspended in an appropriate volume of incubation medium, and the cell viability was calculated by Trypan Blue staining method. 198 μL of hepatocyte suspension (0.51×10^6 cells/mL) was added to the preheated incubation plate. For the culture medium control group, 198 μL of hepatocyte-free incubation medium was added to T0-MC and T120-MC incubation plate. All incubation plates were pre-incubated in a 37° C. incubator for 10 minutes. Then 2 μL of working solutions of the assay sample and the control compound were added, respectively, and the mixture was mixed well. The incubation plate was immediately put into the shaker in the incubator, and the reaction was initiated while starting the timer. For each time point of each compound, 2 duplicate samples were prepared. The incubation conditions were 37° C., saturated humidity, and 5% CO2. In the assay system, the final concentration of the assay sample was 1 μM, the final concentration of the control sample was 3 μM, the final concentration of hepatocytes was 0.5×10^6 cells/mL, and the final concentration of the total organic solvent was 0.96%, of which the final concentration of DMSO was 0.1%. At the end of the incubation for the corresponding time point, the incubation plate was taken out, and 25 μL of a mixture of compound and control compound with cells was added to the sample plate containing 125 μL of stop solution (200 ng/mL tolbutamide and labetalol in acetonitrile). For the Blank sample plate, 25 μL of hepatocyte-free incubation medium was added directly. After sealing, all sample plates were shaken on a shaker at 600 rpm for 10 minutes, and then centrifuged at 3220×g for 20 minutes. Supernatants of the assay sample and the control sample were diluted with ultrapure water at a ratio of 1:3. All samples were mixed well and analyzed by LC/MS/MS.

[3] = Stability assay in plasma, CD-1 mice; conditions: CD-1 mice plasma, 2 μM, 37° C.
Description: Purpose of the assay: Stabilities of the assay compounds in plasma of CD-1 mice and human were assayed, respectively.
Procedure of the assay: Cryopreserved plasma was thawed for 10-20 min. After the plasma was completely thawed, it was placed in a centrifuge and centrifuged at 3220×g for 5 min to remove any suspended matter and sediment in the plasma. 96-well incubation plates were prepared and named TO, T10, T30, T60, T120, respectively. 98 μL of blank plasmas of mouse, rat, canine, monkey and human were added to the corresponding incubation plates, then 2 μL of working solutions of the compound or the control compound were added to the corresponding plates in duplicate. All samples were incubated in a 37° C. water bath. The final incubation concentrations of the compound and the control compounds bisacodyl, enalapril maleate, procaine and probanthine were 2 μM, and the final organic phase content was 2.0%. At the end of incubation for each time point, the corresponding incubation plate was removed and 400 μL of a solution of 200 ng/mL of tolbutamide and labetalol in acetonitrile was added to each corresponding sample well to precipitate the protein. All sample plates were sealed and shaken well, and then centrifuged at 3220×g for 20 minutes. 50 μL of supernatant was taken out and diluted in 100 μL of ultrapure water. All samples were mixed well and then analyzed by LC/MS/MS.

SMILES | CLint(liver) ([1]; 1 μM) [mL/min/kg] | CLint(mic) ([1]; 1 μM) [µL/min/mg] | T1/2 ([1]; 1 μM) [min] | CLint(hep) ([2]; 1 μM) [μL/min/10^6] | CLint(liver) ([2]; 1 μM) [mL/min/kg] | T1/2 ([2]; 1 μM) [min] | Detection of assay compound content within 120 min [3] [%] | CLint scaled at 1 μM [1] [mL/min/kg] | half-life at 1 μM [1] [min] | half-life at 1 μM ([2]; cynomolgus monkey, cryopreserved hepatocytes) [min] | CLint scaled at 1 μM ([2]; cynomolgus monkey, cryopreserved hepatocytes, read-out: CLint(liver)) [mL/min/kg]
C=C(F)C(=O)N1CCN(c2nc(OCC3CCCN3C)nc3c2COC(c2c(F)c(N)cc(C)c2C(F)(F)F)C3)CC1CC#N.Cl (single isomer, unassigned) [Compound 8B hydrochloride] | 20.7 | 23 | 60.3 | 10.2 | 36.7 | 136.1 | 110 | – | – | – | –
C=C(F)C(=O)N1CCN(c2nc(OC[C@@]34CCCN3C[C@H](F)C4)nc3c2COC(c2c(F)c(N)cc(C)c2C(F)(F)F)C3)C[C@@H]1CC#N (some centres unmarked) [Compound 17] | – | 67.9 | – | 51.3 | – | – | 94 | 61.1 | 20.4 | 27 | 185
